Some test systems named below: 786-0 renal; DU-145 prostate; HOP-62 NSCLC; K-562 leukemia; NCI-H522 lung; OVCAR-8 ovarian; SF-268 CNS; SF-539 CNS; SNB-19 CNS; UO-31 renal.
What all share (assay): NCI anticancer screen, dose series, 48 h

This note sets out measurements from PubChem BioAssay (NCI).

Where “and” joins values, the source holds several entries; their conditions need not be identical. Identical values can stand only once.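 Compound exposure: 48 hours, 5 concentrations, 96-well plates. GI50: concentration for 50% inhibition of growth. TGI: concentration producing complete growth inhibition.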 Bounds are passed on as bounds.

Turning to `CC(C)OP(=O)(O)c1ncc(-c2ccc(C(F)(F)F)cc2)c(NC2CCCCCC2)n1`, the GI50 is over 100000 nM with 786-0 renal; over 100000 nM in the assay on DU-145 prostate; 81.2 µM in the assay on HOP-62 NSCLC; 55000 nM in the assay on K-562 leukemia; 38500 nM in the assay on NCI-H522 lung; over 100000 nM in the assay on OVCAR-8 ovarian. The GI50 with SF-268 CNS is over 100000 nM; in the assay with SF-539 CNS, over 100000 nM; in the assay on SNB-19 CNS, over 100 µM; in the assay on UO-31 renal it was over 100000 nM. For the same molecule, the TGI in the assay with 786-0 renal, with DU-145 prostate, in the assay on HOP-62 NSCLC, in the assay on K-562 leukemia, in the assay on NCI-H522 lung and in the assay with OVCAR-8 ovarian was over 100 µM throughout. Moreover, the TGI with SF-268 CNS, in the assay with SF-539 CNS, with SNB-19 CNS and with UO-31 renal was over 100 µM in each case.
Turning to `NCCCN=c1ccc2c3c1c(O)c1c(O)ccc(=O)c1c3[nH]n2CCNCCO`, the GI50 in the assay on 786-0 renal is 723 nM; in the assay with DU-145 prostate, 1000 nM; with HOP-62 NSCLC, 0.484 µM; with K-562 leukemia, 1610 nM and 1640 nM; in the assay on NCI-H522 lung, 550 nM; with OVCAR-8 ovarian, 3340 nM and 1150 nM. In addition, the GI50 was 854 nM and 1530 nM in the assay on SF-539 CNS; 0.821 µM in the assay with SNB-19 CNS; 3780 nM and 14200 nM with UO-31 renal. Moreover, the TGI was 11.4 µM and 5.28 µM in the assay with 786-0 renal; 5.57 µM and 8.3 µM in the assay with DU-145 prostate; 11.1 µM and 9.68 µM with HOP-62 NSCLC; 24.2 µM and 27.2 µM in the assay with K-562 leukemia; 4.69 µM and 3.28 µM in the assay on NCI-H522 lung; 15.7 µM and 20 µM in the assay on OVCAR-8 ovarian. Besides, the TGI is 6.51 µM with SF-268 CNS; 5.31 µM and 7.66 µM in the assay with SF-539 CNS; 6.57 µM and 14.1 µM in the assay with SNB-19 CNS; 24.5 µM and 98.1 µM with UO-31 renal.
As to `C[As](C)SC1OCC(O)C(O)C1O` (centres undefined), the GI50 with 786-0 renal was 70.8 nM; with DU-145 prostate it was 122 nM; in the assay with HOP-62 NSCLC it was 2.15 µM; in the assay on K-562 leukemia it was 49.5 nM; in the assay with NCI-H522 lung, 71.2 nM; in the assay with OVCAR-8 ovarian, 284 nM. The GI50 with SF-268 CNS is 492 nM; in the assay with SF-539 CNS, 111 nM; with SNB-19 CNS, 4.22 µM; with UO-31 renal it was 109 nM. The TGI with 786-0 renal came out at 0.545 µM; in the assay with DU-145 prostate, 0.824 µM; in the assay on HOP-62 NSCLC it was 9.52 µM; in the assay on K-562 leukemia it was 0.378 µM; in the assay with NCI-H522 lung, 0.211 µM; in the assay on OVCAR-8 ovarian it was 2.82 µM. Moreover, the TGI is 2.88 µM with SF-268 CNS, 0.595 µM with SF-539 CNS, 27.4 µM in the assay with SNB-19 CNS and 0.53 µM with UO-31 renal.
Consider `CCOC(=O)[C@@H]1CSC(CC)=C(C(=O)O)N1`, for which the GI50 with 786-0 renal was over 100000 nM; with DU-145 prostate, over 100000 nM; with HOP-62 NSCLC, over 100 µM; in the assay with K-562 leukemia it was over 100000 nM; in the assay on NCI-H522 lung, over 100000 nM; with OVCAR-8 ovarian it was over 100000 nM. Moreover, the GI50 is over 100000 nM in the assay on SF-268 CNS, over 100000 nM with SF-539 CNS, over 100 µM in the assay with SNB-19 CNS and over 100000 nM with UO-31 renal. Also, the TGI with 786-0 renal, in the assay with DU-145 prostate, in the assay on HOP-62 NSCLC, in the assay on K-562 leukemia, in the assay with NCI-H522 lung and with OVCAR-8 ovarian was over 100 µM in each case. Moreover, the TGI with SF-268 CNS, in the assay on SF-539 CNS, in the assay with SNB-19 CNS and in the assay with UO-31 renal was over 100 µM each time.
For the molecule `CCn1c(-c2nonc2N)nc2cnc(Oc3cccc(NC(=O)c4ccc(N(C)C)cc4)c3)cc21`, the GI50 is 21600 nM with 786-0 renal; over 21700 nM with DU-145 prostate; over 25 µM in the assay on HOP-62 NSCLC; over 25000 nM with K-562 leukemia; over 13800 nM in the assay with NCI-H522 lung; over 25000 nM in the assay with OVCAR-8 ovarian. Also, the GI50 with SF-268 CNS is 2480 nM; in the assay on SF-539 CNS it was 18700 nM; with SNB-19 CNS it was over 25 µM; in the assay with UO-31 renal, 23.5 nM. The TGI in the assay with 786-0 renal, with DU-145 prostate, in the assay on HOP-62 NSCLC, in the assay with K-562 leukemia, with NCI-H522 lung and in the assay with OVCAR-8 ovarian was over 25 µM throughout. Moreover, the TGI was over 25 µM with SF-268 CNS, over 25 µM with SF-539 CNS, over 25 µM with SNB-19 CNS and over 18.8 µM in the assay with UO-31 renal.
For `COc1ccc2c(c1OC)O/C(=C\c1ncc([N+](=O)[O-])n1C)C2=O`, the GI50 with 786-0 renal is 1950 nM; in the assay on DU-145 prostate it was 1420 nM; in the assay on HOP-62 NSCLC, 3.67 µM; in the assay with K-562 leukemia, 2120 nM; in the assay on NCI-H522 lung it was 1360 nM; in the assay on OVCAR-8 ovarian, 639 nM. The GI50 was 1360 nM with SF-268 CNS, 3100 nM with SF-539 CNS, 3.69 µM with SNB-19 CNS and 957 nM with UO-31 renal. Besides, the TGI in the assay with 786-0 renal was determined as 5.17 µM; with DU-145 prostate, 6.27 µM; in the assay on HOP-62 NSCLC, 17.4 µM; in the assay with K-562 leukemia, 7.99 µM; with NCI-H522 lung, 3.48 µM; with OVCAR-8 ovarian it was 3.66 µM. Also, the TGI with SF-268 CNS was found to be 6.39 µM; in the assay on SF-539 CNS, 10.2 µM; with SNB-19 CNS it was 23.1 µM; with UO-31 renal, 4.39 µM.
For `N#[N+]c1ccc(Nc2ccccc2)cc1`, the GI50 with 786-0 renal, in the assay on DU-145 prostate, in the assay with HOP-62 NSCLC, in the assay with K-562 leukemia, in the assay with NCI-H522 lung and in the assay with OVCAR-8 ovarian was over 50 µg/mL throughout. Besides, the GI50 in the assay with SF-268 CNS, in the assay on SF-539 CNS, in the assay with SNB-19 CNS and in the assay with UO-31 renal was over 50 µg/mL throughout. Also, the TGI in the assay on 786-0 renal, in the assay with DU-145 prostate, in the assay with HOP-62 NSCLC, with K-562 leukemia, in the assay with NCI-H522 lung and in the assay with OVCAR-8 ovarian was over 50 µg/mL in each case. Also, the TGI in the assay on SF-268 CNS, with SF-539 CNS, in the assay on SNB-19 CNS and in the assay with UO-31 renal was over 50 µg/mL in each case.
